Data published in patent US11578051B2, “Thiophene carboxamide derivative and plant disease control agent comprising same” (KOREA RESEARCH INSTITUTE OF CHEMICAL TECHNOLOGY, priority 2018, dated 2023).

What was measured:
Format in all cases: in vivo
[1] = tested on: cucumber powdery mildew pathogen (Sphaerotheca fusca); experiment: Cucumber powdery mildew control effect test; conditions: treatment concentration 10 ppm, as in Experimental Example 3
Procedure: A predetermined amount of the present compound corresponding to the test concentration was dissolved in 10% acetone and then was sprayed to foliage in a single leafy cucumber (variety: Baekdadagi) grown in a circular pot (6×7 cm, diameter×height). One day after application, the Cucumber plants were inoculated by spraying a spore suspension prepared with spores obtained from cucumber leaves infected with cucumber powdery mildew pathogen (Sphaerotheca fusca). After an incubation period of 1 day at 20° C. humid conditions, the plants were kept in a chamber for 12 days at a constant temperature and humidity under constant light conditions. After 13 days of the compound treatment, the disease incidence was assessed according to equation (1) of Experimental Example 1, and the control value was determined according to the criteria of Experimental Example 1. Compound No. 1 and the following four compounds as a comparative control compound were evaluated for controlling cucumber powdery mildew as described in Experimental Example 3.

[2] = tested on: rice sheath blight pathogen (Rhizoctonia solani); experiment: Rice sheath blight control effect test; conditions: rice (Chucheongbyeo), foliar spray, active ingredient 200 ppm, spraying dose 30 mL, assessed 5 days after treatment
Procedure: A predetermined amount of the present compound corresponding to the test concentration was dissolved in 10% acetone and then was sprayed to foliage in the 5-leaf stage rice (variety: Chucheongbyeo) grown in a circular pot (6×7 cm, diameter×height). One day after application, the rice plants were inoculated by spraying a mycelial suspension of a culture of rice sheath blight pathogen (Rhizoctonia solani) obtained by culturing in a rice bran culture medium and incubated to induce disease development for 5 days under a humid condition at 30° C. After 5 days of the compound treatment, the disease incidence was assessed according to the equation (1) of Experimental Example 1, and the control value was determined according to the criteria of Experimental Example 1.

[3] = tested on: cucumber sclerotinia pathogen (Sclerotinia sclerotiorum); experiment: Cucumber sclerotinia disease control effect test; conditions: cucumber (Baekdadagi), foliar spray, active ingredient 200 ppm, spraying dose 30 mL, assessed 4 days after treatment
Procedure: A predetermined amount of the present compound corresponding to the test concentration was dissolved in 10% acetone and then was sprayed to foliage in a single leafy cucumber (cultivar: Baekdadagi) grown in a circular pot (6×7 cm, diameter×height). One day after application, the Cucumber plants were inoculated by spraying a mycelial suspension of a liquid culture of cucumber sclerotinia pathogen (Sclerotinia sclerotiorum) and incubated for 4 days under constant light conditions and high humidity conditions at 25° C. to induce disease development. Four days after the compound treatment, the disease incidence was assessed according to equation (1) of Experimental Example 1, and the control value was determined according to the criteria of Experimental Example 1.

CON=Cc1ccc(-c2ccccc2NC(=O)c2cn(C)nc2C(F)F)cc1F [Comparative compound C, 3-(difluoromethyl)-N-(3′-fluoro-4′-((methoxyimino)methyl)-[1,1′-biphenyl]-2-yl)-1-methyl-1H-pyrazole-4-carboxamide]
Activity (control value criterion) [1]: 0 (less than 9% control value)

CON=Cc1ccc(-c2ccccc2NC(=O)c2cn(C)nc2C(F)F)cc1 [Comparative compound A, 3-(difluoromethyl)-N-(4′-((methoxyimino)methyl)-[1,1′-biphenyl]-2-yl)-1-methyl-1H-pyrazole-4-carboxamide]
Activity (control value criterion) [1]: 0 (less than 9% control value)

CON=Cc1c(F)cc(-c2ccccc2NC(=O)c2c(C(F)F)nn(C)c2Cl)cc1F [Comparative compound D, 5-chloro-N-(3′,5′-difluoro-4′-((methoxyimino)methyl)-[1,1′-biphenyl]-2-yl)-3-(difluoromethyl)-1-methyl-1H-pyrazole-4-carboxamide]
Activity (control value criterion) [1]: 1 (Control value 10-29%)

CON=Cc1c(F)cc(-c2ccccc2NC(=O)c2sccc2C)cc1F [Compound 1, N-(3′,5′-difluoro-4′-((methoxyimino)methyl)-[1,1′-biphenyl]-2-yl)-3-methylthiophene-2-carboxamide]
control value criterion [2]: 5 (Control value 90-100%) | Activity (control value criterion) [1]: 5 (Control value 90-100%) | control value criterion [3]: 5 (Control value 90-100%)

CON=Cc1ccc(-c2ccccc2NC(=O)c2sccc2C)cc1 [Comparative compound B, N-(4′-((methoxyimino)methyl)-[1,1′-biphenyl]-2-yl)-3-methylthiophene-2-carboxamide]
Activity (control value criterion) [1]: 1 (Control value 10-29%)
